Target: human capsaicin receptor (VR1) (Homo sapiens, UniProt Q8NER1)
Assay: Capsaicin receptor binding assay ([3H]RTX competition, VR1-transfected HEK293 membranes)

Chain of human capsaicin receptor (VR1) (Q8NER1 whole entry): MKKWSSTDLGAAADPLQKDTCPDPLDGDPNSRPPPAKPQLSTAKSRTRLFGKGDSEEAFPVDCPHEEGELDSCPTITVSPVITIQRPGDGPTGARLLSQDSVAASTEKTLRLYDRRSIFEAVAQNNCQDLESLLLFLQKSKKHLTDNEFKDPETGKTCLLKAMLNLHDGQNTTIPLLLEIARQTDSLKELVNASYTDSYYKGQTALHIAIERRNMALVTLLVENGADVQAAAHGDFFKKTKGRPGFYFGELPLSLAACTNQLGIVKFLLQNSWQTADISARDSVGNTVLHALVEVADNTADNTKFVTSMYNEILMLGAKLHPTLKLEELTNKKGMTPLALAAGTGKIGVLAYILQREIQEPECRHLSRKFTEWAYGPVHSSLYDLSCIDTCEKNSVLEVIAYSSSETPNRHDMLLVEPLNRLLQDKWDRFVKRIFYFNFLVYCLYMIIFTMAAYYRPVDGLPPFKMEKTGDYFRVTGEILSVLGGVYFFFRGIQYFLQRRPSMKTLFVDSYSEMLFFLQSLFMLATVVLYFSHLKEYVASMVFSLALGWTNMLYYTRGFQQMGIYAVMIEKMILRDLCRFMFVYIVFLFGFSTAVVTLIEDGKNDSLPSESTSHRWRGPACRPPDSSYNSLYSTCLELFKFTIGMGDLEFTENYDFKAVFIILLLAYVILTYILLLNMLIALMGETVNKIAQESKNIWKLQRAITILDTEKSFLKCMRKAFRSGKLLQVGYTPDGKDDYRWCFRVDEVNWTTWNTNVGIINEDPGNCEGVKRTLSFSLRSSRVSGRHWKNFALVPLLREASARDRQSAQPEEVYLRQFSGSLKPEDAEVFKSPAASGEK

Row | Ki [nM] | SMILES
1 | < 1000 | FC(F)(F)c1ccc(Nc2nc(CN3CCN(CCN4CCCC4)CC3)nc3cc(-c4ncccc4C(F)(F)F)ccc23)cc1 [Compound 517, [2-[4-(Pyrrolidin-1-yl-ethyl)-piperazin-1-ylmethyl]-7-(3-trifluoromethyl-pyridin-2-yl)-quinazolin-4-yl]-(4-trifluoromethyl-phenyl)-amine]
2 | < 1000 | CN(C)CCCN1CCN(Cc2nc(Nc3ccc(C(F)(F)F)cc3)c3ccc(-c4ncccc4C(F)(F)F)cc3n2)CC1 [Compound 519, [2-[4-(3-Dimethylamino-propyl)-piperazin-1-ylmethyl]-7-(3-trifluoromethyl-pyridin-2-yl)-quinazolin-4-yl]-(4-trifluoromethyl-phenyl)-amine]
3 | < 1000 | CC(c1ccc(Nc2nc(CN3CCCCC3)nc3cc(-c4ncccc4C(F)(F)F)ccc23)cc1)C(F)(F)F (stereo not drawn) [Compound 523, [2-Piperidin-1-ylmethyl-7-(3-trifluoromethyl-pyridin-2-yl)-quinazolin-4-yI]-[4-(2,2,2-trifluoro-1-methyl-ethyl)-phenyl]-amine]
4 | < 1000 | CC(c1ccc(Nc2nc(CN3CCOCC3)nc3cc(-c4ncccc4C(F)(F)F)ccc23)cc1)C(F)(F)F (stereo not drawn) [Compound 524, [2-Morpholin-4-ylmethyl-7-(3-trifluoromethyl-pyridin-2-yl)-quinazolin-4-yl]-[4-(2,2,2-trifluoro-1-methyl-ethyl)-phenyl]-amine]
5 | < 1000 | COCCNCc1nc(Nc2ccc(C(F)(F)F)cc2)c2ccc(-c3ncccc3C(F)(F)F)cc2n1 [Compound 535, [2-[(2-Methoxy-ethylamino)-methyl]-7-(3-trifluoromethyl-pyridin-2-yl)-quinazolin-4-yl]-(4-trifluoromethyl-phenyl)-amine]
6 | < 1000 | CCCCCCNCc1nc(Nc2ccc(C(F)(F)F)cc2)c2ccc(-c3ncccc3C(F)(F)F)cc2n1 [Compound 539, [2-Hexylaminomethyl-7-(3-trifluoromethyl-pyridin-2-yl)-quinazolin-4-yl]-(4-trifluoromethyl-phenyl)-amine]
7 | < 1000 | CCCCCCCCNCc1nc(Nc2ccc(C(F)(F)F)cc2)c2ccc(-c3ncccc3C(F)(F)F)cc2n1 [Compound 540, [2-Octylaminomethyl-7-(3-trifluoromethyl-pyridin-2-yl)-quinazolin-4-yl]-(4-trifluoromethyl-phenyl)-amine]

The remaining lines, values behind:

Row | SMILES | Ki [nM]
8 | COCCN1CCN(Cc2nc(Nc3ccc(C(F)(F)F)cc3)c3ccc(-c4ncccc4C(F)(F)F)cc3n2)CC1 [Compound 514, [2-[4-(2-Methoxy-ethyl)-piperazin-1-ylmethyl]-7-(3-trifluoromethyl-pyridin-2-yl)-quinazolin-4-yl]-(4-trifluoromethyl-phenyl)-amine] | < 1000
9 | CN(C)CCN1CCN(Cc2nc(Nc3ccc(C(F)(F)F)cc3)c3ccc(-c4ncccc4C(F)(F)F)cc3n2)CC1 [Compound 515, [2-[4-(2-Dimethylamino-ethyl)-piperazin-1-ylmethyl]-7-(3-trifluoromethyl-pyridin-2-yl)-quinazolin-4-yl]-(4-trifluoromethyl-phenyl)-amine] | < 1000
10 | FC(F)(F)c1ccc(Nc2nc(CN3CCN(CCN4CCOCC4)CC3)nc3cc(-c4ncccc4C(F)(F)F)ccc23)cc1 [Compound 518, [2-[4-(2-Morpholin-4-yl-ethyl)-piperazin-1-ylmethyl]-7-(3-trifluoromethyl-pyridin-2-yl)-quinazolin-4-yl]-(4-trifluoromethyl-phenyl)-amine] | < 1000
11 | COCCN(CCOC)Cc1nc(Nc2ccc(C(F)(F)F)cn2)c2ccc(-c3ncccc3C(F)(F)F)cc2n1 [Compound 521, [2-{[Bis-(2-methoxy-ethyl)-aminol]-methyl}-7-(3-trifluoromethyl-pyridin-2-yl)-quinazolin-4-yl]-(5-trifluoromethyl-pyridin-2-yl)-amine] | < 1000
12 | CN1CCN(Cc2nc(Nc3ccc(C(F)(F)F)cn3)c3ccc(-c4ncccc4C(F)(F)F)cc3n2)CC1 [Compound 522, [2-(4-Methyl-piperazin-1-ylmethyl)-7-(3-trifluoromethyl-pyridin-2-yl)-quinazolin-4-yl]-(5-trifluoromethyl-pyridin-2-yl)-amine] | < 1000
13 | CC1CN(Cc2nc(Nc3ccc(C(C)C(F)(F)F)cc3)c3ccc(-c4ncccc4C(F)(F)F)cc3n2)CC(C)O1 (stereo not drawn) [Compound 525, [2-(2,6-Dimethyl-morpholin-4-ylmethyl)-7-(3-trifluoromethyl-pyridin-2-yl)-quinazolin-4-yl]-[4-(2,2,2-trifluoro-1-methyl-ethyl)-phenyl]-amine] | < 1000
14 | CC(c1ccc(Nc2nc(CN3CCN(C)CC3)nc3cc(-c4ncccc4C(F)(F)F)ccc23)cc1)C(F)(F)F (stereo not drawn) [Compound 526, [2-(4-Methyl-piperazin-1-ylmethyl)-7-(3-trifluoromethyl-pyridin-2-yl)-quinazolin-4-yl]-[4-(2,2,2-trifluoro-1-methyl-ethyl)-phenyl]-amine] | < 1000
15 | COCCN(CCOC)Cc1nc(Nc2ccc(C(C)C(F)(F)F)cc2)c2ccc(-c3ncccc3C(F)(F)F)cc2n1 (stereo not drawn) [Compound 527, [2-{[Bis-(2-methoxy-ethyl)-amino]-methyl}-7-(3-trifluoromethyl-pyridin-2-yl)-quinazolin-4-yl]-[4-(2,2,2-trifluoro-1-methyl-ethyl)-phenyl]-amine] | < 1000
16 | CCNCc1nc(Nc2ccc(C(F)(F)F)cc2)c2ccc(-c3ncccc3C(F)(F)F)cc2n1 [Compound 531, [2-Ethylaminomethyl-7-(3-trifluoromethyl-pyridin-2-yl)-quinazolin-4-yl]-(4-trifluoromethyl-phenyl)-amine] | < 1000
17 | OCCNCc1nc(Nc2ccc(C(F)(F)F)cc2)c2ccc(-c3ncccc3C(F)(F)F)cc2n1 [Compound 534, 2-{[4-(4-Trifluoromethyl-phenylamino)-7-(3-trifluoromethyl-pyridin-2-yl)-quinazolin-2-ylmethyl]-amino}-ethanol] | < 1000
18 | CC(C)CNCc1nc(Nc2ccc(C(F)(F)F)cc2)c2ccc(-c3ncccc3C(F)(F)F)cc2n1 [Compound 536, [2-(Isobutylamino-methyl)-7-(3-trifluoromethyl-pyridin-2-yl)-quinazolin-4-yl]-(4-trifluoromethyl-phenyl)-amine] | < 1000
19 | CC(C)CCNCc1nc(Nc2ccc(C(F)(F)F)cc2)c2ccc(-c3ncccc3C(F)(F)F)cc2n1 [Compound 537, [2-[(3-Methyl-butylamino)-methyl]-7-(3-trifluoromethyl-pyridin-2-yl)-quinazolin-4-yl]-(4-trifluoromethyl-phenyl)-amine] | < 1000
20 | FC(F)(F)c1ccc(Nc2nc(CN3CCOCC3)nc3cc(-c4ncccc4C(F)(F)F)cnc23)cn1 [Compound 542, [2-Morpholin-4-ylmethyl-7-(3-trifluoromethyl-pyridin-2-yl)-pyrido[3,2-d]pyrimidin-4-yl]-(6-trifluoromethyl-pyridin-3-yl)-amine] | < 1000
21 | FC(F)(F)c1ccc(Nc2nc(-c3ccc(N4CCCC4)nc3)nc3cc(-c4ncccc4C(F)(F)F)ccc23)cc1 [Compound 543, [2-(6-Pyrrolidin-1-yl-pyridin-3-yl)-7-(3-trifluoromethyl-pyridin-2-yl)-quinazolin-4-yl]-(4-trifluoromethyl-phenyl)-amine] | < 1000
